Data on six compounds can be found in paper PMC8661510, “Computational study, synthesis and evaluation of active peptides derived from Parasporin-2 and spike protein from Alphacoronavirus against colorectal cancer cells” (Bioscience Reports, 2021).

Read-outs that look alike come from different tables or passages of the source. No end group written: not given here. Where only a bound is given, the exact number is not on record here.

Data set [1] concerns SW480 cells. Description: cells. The following applies: Homo sapiens, SW480, 48 h.
Data set [2] deals with SW480 cells. Description: Annexin V-Cy3/6-CFDA staining, SW480. It is filed as cell-based, Human. The following applies: EC50 concentration, 24 and 48 h. The method, then: (§1) The presence of phosphatidylserine at the cell surface was detected by phosphatidylserine binding protein annexin V conjugated with Cy3 using the commercially available Annexin V-Cy3 apoptosis detection kit (APOAC, Apoptosis Detection Kit, Sigma). […] The PBS and binding buffer were used to wash the adherent cells and the washed cell adherents were suspended in 50 µl of Ann-Cy3 and 6-CFDA. Then, the plates were incubated for 10 min in the dark. Afterwards, the excess label was removed by washing the cells with binding buffer. EVOS M7000 digital inverted fluorescence microscope (ThermoFisher Scientific; Waltham, MA, U.S.A.) was used to observe Ann-Cy3 and 6-CFDA-labeled cells. This assay allowed one to differentiate live cells (green), necrotic cells (red), and apoptotic cells (red nuclei and green cytoplasm). The percentage of cells reflecting apoptotic and necrotic cells was manually calculated. Data were collected for three replicates and used to calculate the respective means and standard deviations.

The test system of data set [3] is SW620 cells. Description: cells. The following applies: Homo sapiens, SW-620, 48 h.
The test system of data set [4] is SW620 cells. Description: Annexin V-Cy3/6-CFDA staining, SW620. It is filed as cell-based, Human. The following applies: EC50 concentration, 24 and 48 h. As for the experimental part: as §1
Data set [5] deals with SW480 cells. The following applies: for EC50: 48 h; for percentage of viability SW480 cells: human, 150 µM.
Data set [6] is described as follows: Hemolytic activity assay. Format: cell-based. The following applies: human, erythrocytes; 150 μM peptide; relative to 0.1% Triton X-100; read-out: %HC50 at 150 μM (percentage of hemolysis).
The test system of data set [7] is SW620 cells. The following applies: for EC50: 48 h; for percentage of cell viability SW620 cells: human, 150 µM.

For `O=c1[nH]cc(F)c(=O)[nH]1` [5-FU, 5-Fluorouracil], the EC50 turned out to be 24.4 ± 0.82 µM in data set [1] (read-out: EC50 SW480) and 11.9 ± 1.2 µM in data set [3] (read-out: EC50 SW620). Moreover, the viability at 150 µM was 18.9% in data set [1] (read-out: percentage of viability SW480 cells) and 2.8% in data set [3] (read-out: percentage of cell viability SW620 cells). In addition, the “Annexin V-Cy3/6-CFDA staining result” value in data set [2] and in data set [4] was “Same results” each time.
As to “TYFNAVKPPITA-NH2 [Loop2-PS2Aa, TYFNAVKPPITA-NH2]”, in data set [5], the midpoint of the response, the EC50, lay at 93 ± 0.98 µM and the “percentage of viability SW480 cells” value is 39.5%. Moreover, the hemolysis at 150 μM in data set [6] was 9.4%. Besides, in data set [7], the EC50 stood at 16 ± 0.69 µM and the “percentage of cell viability SW620 cells” value came to 24.1%.
As for “FKPQSGGGKCF-NH2 [Loop1-HCoV-229E, FKPQSGGGKCF-NH2]”, in data set [5], the response was half-maximal at 125 ± 1.32 µM (EC50) and the “percentage of viability SW480 cells” value is 56.2%. For the same compound, the hemolysis at 150 μM in data set [6] is 9.2%. In data set [7], the EC50 is over 150 µM and the “percentage of cell viability SW620 cells” value turned out to be 55.2%.
For “NNETYFNAVKP-NH2 [Loop1-PS2Aa, NNETYFNAVKP-NH2]”, in that order: 23.8 ± 1.25 µM, 16%, 18.1%, 106 ± 1.67 µM and 46.8%.
For “PARDVLNTTSG-NH2 [P264-G274, PARDVLNTTSG-NH2]”, in that order: 90.98 ± 0.75 µM, 41.6%, 12.2%, 11.3 ± 0.52 µM and 16.5%.
Turning to “H-FLGWLFKVASK-NH2 [A4W-GGN5, FLGWLFKVASK-NH2, reference compound]”, in data set [5], the response was half-maximal at 98.6 ± 1.17 µM (EC50) and the “percentage of viability SW480 cells” value is given as 41.8%. Moreover, the hemolysis at 150 μM in data set [6] is 23%. In data set [7], the midpoint of the response, the EC50, lay at 22.1 ± 1.63 µM and the “percentage of cell viability SW620 cells” value amounted to 32.2%.
